Earlier results on two substances are cited in patent US8877808B2, “Protection against skin diseases by aurin tricarboxylic acid and its derivatives” (Aurin Biotech Inc., priority 2012, dated 2014).

This series has as its target C9 binding to C5b678 (Homo sapiens, UniProt P02748). As to conditions: Lee et al. 2012a.

Sequence of C9 binding to C5b678 (P02748 22-559): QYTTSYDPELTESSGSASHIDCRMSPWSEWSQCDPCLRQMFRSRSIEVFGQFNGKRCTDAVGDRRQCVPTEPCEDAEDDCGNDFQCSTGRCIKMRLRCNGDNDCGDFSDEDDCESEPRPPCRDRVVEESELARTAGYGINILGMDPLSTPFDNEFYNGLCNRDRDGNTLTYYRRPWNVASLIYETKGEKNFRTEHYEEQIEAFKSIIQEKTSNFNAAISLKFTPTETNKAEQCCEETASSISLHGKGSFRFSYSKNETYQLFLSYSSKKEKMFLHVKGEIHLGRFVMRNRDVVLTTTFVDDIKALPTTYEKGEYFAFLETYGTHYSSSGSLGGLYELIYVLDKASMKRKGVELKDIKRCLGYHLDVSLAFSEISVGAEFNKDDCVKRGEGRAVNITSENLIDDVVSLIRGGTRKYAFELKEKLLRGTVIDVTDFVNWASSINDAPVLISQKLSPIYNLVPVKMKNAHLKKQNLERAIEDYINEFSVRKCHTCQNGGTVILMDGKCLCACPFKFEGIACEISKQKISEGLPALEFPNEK

As for aurin quadracarboxylic acid [AQA], the “block of classical pathway at C9 binding to C5b678, formation of the MAC (C5b-9)” value is listed as “block classical pathway formation at the stage of C9 binding to C5b678”.

Regarding aurin hexacarboxylic acid [AHA], the “block of classical pathway at C9 binding to C5b678, formation of the MAC (C5b-9)” value was “block classical pathway formation at the stage of C9 binding to C5b678”.
